Values quoted from earlier work in US20230143731A1, “NANOMATERIALS FOR TARGETED TREATMENT OF PULMONARY TISSUE” (The University of North Carolina at Chapel Hill, priority 2020, published 2023).

Tested on: ACE
Settings: with and without the C-terminal serine

Row | Substance | ACE inhibition [%]
1 | TPTQQ [TPTQQ peptide] | 26
2 | TPTQQS | 73
